Data taken from ChEMBL document CHEMBL1201862, “PubChem BioAssay data set” (2004).
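Values below derive from 48-hour exposures of cells grown in 96-well plates, with endpoints linearly interpolated between the two concentrations bracketing the appropriate inhibition level. GI50: concentration for 50% inhibition of growth.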 Calls of active or inactive are those of the source. Rule as the data show it: active = GI50 up to about 1.1 µM and inactive = higher.

Assays:
Test in all cases: inhibition of tumour cell growth, NCI panel, 48 h
[1] = test system: CAKI-1
[2] = test system: SF-295
[3] = test system: K562
[4] = test system: OVCAR-4
[5] = test system: EKVX
[6] = test system: HT-29
[7] = test system: SW-620
[8] = test system: RPMI-8226
[9] = test system: SR
[10] = test system: UO-31
[11] = test system: RXF 393
[12] = test system: SNB-75
[13] = test system: U-251
[14] = test system: OVCAR-8
[15] = test system: HOP-92
[16] = test system: SN12C
[17] = test system: HCC 2998

| SMILES | GI50 [1] | GI50 [2] | GI50 [3] | GI50 [4] | GI50 [5] | GI50 [6] | GI50 [7] | GI50 [8] | GI50 [9] | GI50 [10] | GI50 [11] | GI50 [12] | GI50 [13] | GI50 [14] | GI50 [15] | GI50 [16] | GI50 [17] |
| --- | --- | --- | --- | --- | --- | --- | --- | --- | --- | --- | --- | --- | --- | --- | --- | --- | --- |
| COc1ccc(/N=C/c2ccc(N(CCC#N)S(=O)(=O)c3ccccc3)cc2)cc1 | > 100 µM (inactive) | > 100 µM (inactive) | 68.1 µM (inactive) | > 100 µM (inactive) | > 100 µM (inactive) | > 100 µM (inactive) | > 100 µM (inactive) | > 100 µM (inactive) | > 100 µM (inactive) | > 100 µM (inactive) | > 100 µM (inactive) | > 100 µM (inactive) | > 100 µM (inactive) | > 100 µM (inactive) | > 100 µM (inactive) | > 100 µM (inactive) |  |
| CCCCCCCSCC1C(=O)C23C(O)C1CCC2C12COC3(O)C(O)C1C(C)(C)CCC2O (stereo not drawn) | 4.83 µM (inactive) | 17.9 µM (inactive) | 3.98 µM (inactive) | 11.8 µM (inactive) | 17.7 µM (inactive) | 13.5 µM (inactive) | 0.881 µM (active) | 4.06 µM (inactive) | 4.92 µM (inactive) | 11.2 µM (inactive) | 11.2 µM (inactive) | 21.2 µM (inactive) | 10.7 µM (inactive) | 16.4 µM (inactive) | 13.9 µM (inactive) | 8.41 µM (inactive) | 15 µM (inactive) |
| O=C(Nc1c(O)[nH]c(=S)[nH]c1=O)c1ccccc1F | > 100 µM (inactive) | > 100 µM (inactive) | > 100 µM (inactive) | > 100 µM (inactive) |  | > 100 µM (inactive) | > 100 µM (inactive) | > 100 µM (inactive) | > 100 µM (inactive) | > 100 µM (inactive) |  | > 100 µM (inactive) | > 100 µM (inactive) | > 100 µM (inactive) | > 100 µM (inactive) | > 100 µM (inactive) |  |
| COC(=O)C12C34C=CC5(CCC6(C=CC1(CC3)O6)C52C(=O)OC)O4 (stereo not drawn) | > 100 µM (inactive) | > 100 µM (inactive) | > 100 µM (inactive) | > 100 µM (inactive) | > 100 µM (inactive) | > 100 µM (inactive) | > 100 µM (inactive) |  | > 100 µM (inactive) |  | 75 µM (inactive) |  | > 100 µM (inactive) | > 100 µM (inactive) | > 100 µM (inactive) | > 100 µM (inactive) | > 100 µM (inactive) |
| C/C(=N/NC(=O)C(N)=O)C(CC(C(=O)Nc1ccccc1C)/C(C)=N\NC(=O)C(N)=O)C(=O)Nc1ccccc1C (stereo not drawn) | > 100 µM (inactive) | > 100 µM (inactive) | > 100 µM (inactive) | > 100 µM (inactive) | > 100 µM (inactive) | > 100 µM (inactive) | > 100 µM (inactive) | > 100 µM (inactive) |  | 70.5 µM (inactive) | > 100 µM (inactive) | > 100 µM (inactive) | > 100 µM (inactive) | > 100 µM (inactive) | 47.1 µM (inactive) | > 100 µM (inactive) | > 100 µM (inactive) |
| CCCC/C=C1\CCC(C)(CN(C)C)C1=O (stereo not drawn) | > 100 µM (inactive) | > 100 µM (inactive) | > 100 µM (inactive) | > 100 µM (inactive) | > 100 µM (inactive) | > 100 µM (inactive) | > 100 µM (inactive) |  | > 100 µM (inactive) | > 100 µM (inactive) | 46.5 µM (inactive) |  | > 100 µM (inactive) | > 100 µM (inactive) | > 100 µM (inactive) | > 100 µM (inactive) | > 100 µM (inactive) |
| CCOc1ccc(NC(=O)CCc2nnc(SC)o2)cc1 | > 100 µM (inactive) | > 100 µM (inactive) | > 100 µM (inactive) | > 100 µM (inactive) | > 100 µM (inactive) | > 100 µM (inactive) | > 100 µM (inactive) |  | > 100 µM (inactive) | > 100 µM (inactive) | > 100 µM (inactive) | > 100 µM (inactive) | > 100 µM (inactive) | > 100 µM (inactive) | 82 µM (inactive) | > 100 µM (inactive) | > 100 µM (inactive) |
| Cc1c(C)c2cc3c(=O)ccoc3c(C)c2oc1=O |  | > 100 µM (inactive) | > 100 µM (inactive) |  | > 100 µM (inactive) |  | > 100 µM (inactive) | > 100 µM (inactive) |  | 24.4 µM (inactive) | 25 µM (inactive) | 15 µM (inactive) | > 100 µM (inactive) | > 100 µM (inactive) |  | 56.6 µM (inactive) | > 100 µM (inactive) |
| CCCCCCCCCCCCCCCCOC(=O)c1cc(O)cc(C(=O)OCCCCCCCCCCCCCCCC)c1 | > 100 µM (inactive) | > 100 µM (inactive) | > 100 µM (inactive) | > 100 µM (inactive) | > 100 µM (inactive) | > 100 µM (inactive) | > 100 µM (inactive) | > 100 µM (inactive) |  | > 100 µM (inactive) | > 100 µM (inactive) | > 100 µM (inactive) | > 100 µM (inactive) | > 100 µM (inactive) | > 100 µM (inactive) | > 100 µM (inactive) | > 100 µM (inactive) |
| Cc1cc(C)c(C(=O)/C(=C/c2ccccc2)c2ccccc2)c(C)c1 | 36.8 µM (inactive) | 51.6 µM (inactive) | 36.3 µM (inactive) | 57.9 µM (inactive) | 72.8 µM (inactive) | 28.2 µM (inactive) | 60 µM (inactive) | 37.1 µM (inactive) | 36.6 µM (inactive) | 56.8 µM (inactive) | 46.2 µM (inactive) | 82.2 µM (inactive) | 39.9 µM (inactive) | 46.5 µM (inactive) | 32.8 µM (inactive) | 41.7 µM (inactive) |  |
| Cc1cc(/C=C/c2cc[n+](C)c3ccccc23)c(O)c2ncccc12 | 10.1 µM (inactive) | 0.991 µM (active) | 2.46 µM (inactive) | 7.94 µM (inactive) | 3.28 µM (inactive) | 3.76 µM (inactive) | 0.619 µM (active) | 0.71 µM (active) | 0.379 µM (active) | 6.67 µM (inactive) | 2.38 µM (inactive) | 5.16 µM (inactive) | 1.23 µM (inactive) | 0.411 µM (active) | 2.99 µM (inactive) | 1.09 µM (active) | 1.06 µM (active) |
| CCSC1=CC(Cc2ccc(OC)cc2)N(C(=O)OC)C1 (stereo not drawn) | 86.5 µM (inactive) | > 100 µM (inactive) | 34.3 µM (inactive) | > 100 µM (inactive) | > 100 µM (inactive) | 94.2 µM (inactive) | 25.2 µM (inactive) |  | 26.3 µM (inactive) | > 100 µM (inactive) | 32.3 µM (inactive) | > 100 µM (inactive) | > 100 µM (inactive) | > 100 µM (inactive) | 55.2 µM (inactive) | > 100 µM (inactive) | > 100 µM (inactive) |
| COc1ccc2c(c1)CC[C@@H]1C2CC[C@]2(C)C(=O)NC(=O)CC12 (stereo partly drawn) | > 100 µM (inactive) | > 100 µM (inactive) | 25.2 µM (inactive) |  | 84.1 µM (inactive) | 56.2 µM (inactive) | > 100 µM (inactive) | > 100 µM (inactive) |  | 97.7 µM (inactive) |  |  | > 100 µM (inactive) | > 100 µM (inactive) | > 100 µM (inactive) | > 100 µM (inactive) | 53.3 µM (inactive) |
| CCOc1ccc(/N=C/c2c3ccccc3nc3ccccc23)cc1 | 58.2 µM (inactive) | 59.6 µM (inactive) | 4.48 µM (inactive) | 70 µM (inactive) | 95.3 µM (inactive) | 21.8 µM (inactive) | 31.3 µM (inactive) | 21.8 µM (inactive) |  | 98.6 µM (inactive) | 46.2 µM (inactive) | 44.8 µM (inactive) | > 100 µM (inactive) | 65.3 µM (inactive) | > 100 µM (inactive) | > 100 µM (inactive) | > 100 µM (inactive) |
| S=c1sc2c(S)nc(S)nc2n1-c1ccccc1 | > 100 µM (inactive) | > 100 µM (inactive) | > 100 µM (inactive) | > 100 µM (inactive) | > 100 µM (inactive) | > 100 µM (inactive) | > 100 µM (inactive) | > 100 µM (inactive) | > 100 µM (inactive) | > 100 µM (inactive) | > 100 µM (inactive) | 69.8 µM (inactive) | > 100 µM (inactive) | > 100 µM (inactive) | 42.4 µM (inactive) | > 100 µM (inactive) | > 100 µM (inactive) |
| O=C1C2C3C=C4c5ccccc5N(c5ccccc5)C4(C2C(=O)N1c1ccc(Br)cc1)[C@H]1C(=O)N(c2ccc(Br)cc2)C(=O)[C@@H]31 (stereo partly drawn) | 18.8 µM (inactive) | > 100 µM (inactive) | > 100 µM (inactive) | > 100 µM (inactive) | > 100 µM (inactive) | > 100 µM (inactive) | > 100 µM (inactive) | 3.41 µM (inactive) | 38.9 µM (inactive) | > 100 µM (inactive) | > 100 µM (inactive) | > 100 µM (inactive) | > 100 µM (inactive) | > 100 µM (inactive) | 84.3 µM (inactive) | > 100 µM (inactive) |  |
| COC(=O)[C@@]12OC[C@]34C([C@@H](O)C1O)[C@@]1(C)CC(=O)C(OC(=O)/C=C(/c5ccccc5)C(F)(F)F)=C(C)C1C[C@H]3OC(=O)[C@H](O)[C@H]42 (stereo partly drawn) | 20.1 µM (inactive) | 7.93 µM (inactive) | 9.4 µM (inactive) | 17.7 µM (inactive) | 38.6 µM (inactive) | 6.76 µM (inactive) |  | 2.06 µM (inactive) | 3.29 µM (inactive) | 35.7 µM (inactive) | 16.9 µM (inactive) | 4.01 µM (inactive) | 6.68 µM (inactive) | 12.1 µM (inactive) | 5.86 µM (inactive) | 7.93 µM (inactive) | 3.44 µM (inactive) |
